Reference: US11919878B1, “9-(2-hydroxypyridin-3-yl)-10-(2-phenylethyl)-3,3,6,6-tetramethyl-3,4,6,7,9,10-hexahydroacridine1,8(2H,5H)-dione as an antimicrobial compound” (KING FAISAL UNIVERSITY, priority 2023, dated 2024)

What was measured:
Assay in all cases: Antimicrobial screening, agar dilution
Format in all cases: cell-based
Conditions in all cases: after 10, 20, 40 and 60 minutes at all dilutions 1:100, 1:200, 1:400, 1:800
[1] = tested on: Candida albicans
Method: (§1) The antibacterial properties of the synthesized compound compound (9-(2-hydroxypyridin-3-yl)-10-(2-phenylethyl)-3,3,6,6-tetramethyl-3,4,6,7,9,10-hexahydroacridine1,8(2H,5H)-dione) were studied by the method of agar dilution. Test solutions of each compound was prepared in concentration of 1% using dimethylformamide as a solvent then they are diluted in physiological solution to obtain the final experimental dilutions 1:100, 1:200, 1:400, 1:800. The effect of these substances are compared with furacillin in a controllable study. The testing microbes used were gram positive bacteria Staphylococcus aureus, gram negative bacteria Pseudomonas aeruginosa and Escherichia coli and Candida albicans fungus. The experiments used for this survey were meat-pentonlu agar (EPA) for cultivation of bacteria and Saburo enviromnent for the fungus. Each experiment used 1 mL of test solution on each plate […]. Two drops of emulsified with microbes feel were added. All experimental samples were taken from the agar after 10, 20, 40, 60 minutes in the environment on the basis of Patrk planted. The bacteria were cultivated at a temperature: of 37° C for 1 day and the mushroom was kept in a thermostat for […] at a temperature of 28° C. Then results were checked.

[2] = tested on: Escherichia coli
Method: as §1

[3] = tested on: Pseudomonas aeruginosa
Method: as §1

[4] = tested on: Staphylococcus aureus
Method: as §1

Measured: inhibition activity (in words)

CC1(C)CC(=O)C2=C(C1)N(CCc1ccccc1)C1=C(C(=O)CC(C)(C)C1)C2c1cccnc1O [9-(2-hydroxypyridin-3-yl)-10-(2-phenylethyl)-3,3,6,6-tetramethyl-3,4,6,7,9,10-hexahydroacridine1,8(2H,5H)-dione]
highest inhibition activity: all assays above
